Columns and labels:
HBV DNA = HBV DNA assay (real-time qPCR/TaqMan of extracellular HBV DNA copy number, HepG2.2.15 cells); assay type: cell-based; conditions: Anti HBV DNA production activity in HepG2.2.15 cells, supernatant collected six days after initial administration
Method: HepG2.2.15 cells (Acs et al. Proc Natl Acad Sci USA, 84, (1987), 4641-4), a constitutively HBV-expressing cell line were cultured in DMEM+Glutamax-I medium (Invitrogen, Carlsbad, Calif., USA), supplemented with 10% fetal bovine serum (Invitrogen) and G418 (Invitrogen) at a final concentration of 200 mg/L and maintained in 5% CO2 at 37° C.
The assay employs real-time qPCR (TaqMan) to directly measure extracellular HBV DNA copy number. HepG2.2.15 cells were plated in 96-well microtiter plates. Only the interior wells were utilized to reduce “edge effects” observed during cell culture, the exterior wells were filled with complete medium to help minimize sample evaporation. On the following day, the HepG2.2.15 cells were washed and the medium was replaced with complete medium containing various concentrations of a test compound in triplicate. 3TC was used as the positive control, while media alone was added to cells as a negative control (virus control, VC). Three days later, the culture medium was replaced with fresh medium containing the appropriately diluted drug. Six days following the initial administration of the test compound, the cell culture supernatant was collected, treated with pronase and then used in a real-time qPCR/TaqMan assay to determine HBV DNA copy numbers. Antiviral activity was calculated from the reduction in HBV DNA levels (IC50).
The compounds of the present invention were tested for their capacity to inhibit HBV DNA as described herein.

HBsAg = HBsAg assay (chemiluminescence immunoassay of secreted HBsAg in HepG2.2.15 culture supernatant); assay type: cell-based, HBV; conditions: HepG2.2.15 cells, CLIA kit
How it was run: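 IC50 came from dose-response curves of HBsAg in culture supernatant, measured semi-quantitatively by chemiluminescent immunoassay. The HBV-producing HepG2.2.15 line was dosed in duplicate with a three-fold compound dilution series, with DMSO at 1% final and DMSO alone as the no-drug control.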

[1] = Hepatitis B virus, HepG2.2.15, 144 h
[2] = HBsAg secretion reduced by 50% vs no drug control
[3] = Hepatitis B virus, HepG2.2.15, HBsAg secretion reduced by 50% vs no drug control

## CCOc1cc2c(cc1OCC)-c1cc(=O)c(C(=O)O)cn1C(CC)C2 (single isomer, unassigned; (+)) [Example 6, (+)-9,10-diethoxy-6-ethyl-2-oxo-6,7-dihydrobenzo[a]quinolizine-3-carboxylic acid]
HBV DNA
  IC50: 6 nM

## CCC1Cc2cc(OCC(F)(F)F)c(OC)cc2-c2cc(=O)c(C(=O)O)cn21 (single isomer, unassigned; (+)) [Example 11, (+)-6-ethyl-10-methoxy-2-oxo-9-(2,2,2-trifluoroethoxy)-6,7-dihydrobenzo[a]quinolizine-3-carboxylic acid]
HBV DNA; [1]
  IC50: 4 nM
HBsAg; [2]
  IC50: 17 nM

## CCCOc1cc2c(cc1OC)-c1cc(=O)c(C(=O)O)cn1C(CC)C2 (single isomer, unassigned; (+)) [Example 79, (+)-6-ethyl-10-methoxy-2-oxo-9-propoxyl-6,7-dihydrobenzo[a]quinolizine-3-carboxylic acid]
HBV DNA; [1]
  IC50: 2 nM
HBsAg; [2]
  IC50: 4 nM

## COc1cc2c(cc1OC)-c1cc(=O)c(C(=O)O)cn1C(C(C)C)C2 (single isomer, unassigned; (+)) [Example 99, (+)-6-isopropyl-9,10-dimethoxy-2-oxo-6,7-dihydrobenzo[a]quinolizine-3-carboxylic acid]
HBV DNA; [1]
  IC50: 3 nM
HBsAg; [2]
  IC50: 16 nM

## COCCOc1cc2c(cc1Cl)-c1cc(=O)c(C(=O)O)cn1C(C(C)C)C2 (single isomer, unassigned; (+)) [Example 108, (+)-10-chloro-6-isopropyl-9-(2-methoxyethoxy)-2-oxo-6,7-dihydrobenzo[a]quinolizine-3-carboxylic acid]
HBV DNA; [1]
  IC50: 2 nM
HBsAg; [2]
  IC50: 3 nM

## COCCCOc1cc2c(cc1Cl)-c1cc(=O)c(C(=O)O)cn1C(C(C)C)C2 (single isomer, unassigned; (+)) [Example 121, (+)-10-chloro-6-isopropyl-9-(3-methoxypropoxy)-2-oxo-6,7-dihydrobenzo[a]quinolizine-3-carboxylic acid]
HBV DNA; [1]
  IC50: < 0.1 nM
HBsAg; [2]
  IC50: 2 nM

## COCCCOc1cc2c(cc1OC)-c1cc(=O)c(C(=O)O)cn1C(C(C)C)C2 (single isomer, unassigned; (+)) [Example 124, (+)-10-methoxy-6-isopropyl-9-(3-methoxypropoxy)-2-oxo-6,7-dihydrobenzo[a]quinolizine-3-carboxylic acid]
HBV DNA; [1]
  IC50: < 0.1 nM
HBsAg; [2]
  IC50: 2 nM

## COc1cc2c(cc1OCCN1CCOCC1)CC(C(C)(C)C)n1cc(C(=O)O)c(=O)cc1-2 (single isomer, unassigned; (+)) [Example 190, (+)-6-tert-butyl-10-methoxy-9-(2-morpholinoethoxy)-2-oxo-6,7-dihydrobenzo[a]quinolizine-3-carboxylic acid]
HBV DNA; [1]
  IC50: 2 nM
HBsAg; [2]
  IC50: 6 nM

## COCCCOc1cc2c(cc1Cl)-c1cc(=O)c(C(=O)O)cn1C(C1(C)CC1)C2 (single isomer, unassigned; (+)) [Example 206, (+)-10-chloro-9-(3-methoxypropoxy)-6-(1-methylcyclopropyl)-2-oxo-6,7-dihydrobenzo[a]quinolizine-3-carboxylic acid]
HBV DNA; [1]
  IC50: 0.1 nM
HBsAg; [2]
  IC50: 1 nM

## COCCCOc1cc2c(cc1OC)-c1cc(=O)c(C(=O)O)cn1C(C1(C)CC1)C2 (single isomer, unassigned; (+)) [Example 209, (+)-10-methoxy-9-(3-methoxypropoxy)-6-(1-methylcyclopropyl)-2-oxo-6,7-dihydrobenzo[a]quinolizine-3-carboxylic acid]
HBV DNA; [1]
  IC50: 0.3 nM
HBsAg; [2]
  IC50: 1 nM

## CCOc1cc2c(cc1Cl)-c1cc(=O)c(C(=O)O)cn1C(CC)C2 (single isomer, unassigned; (-)) [Example 119, (−)-10-chloro-9-ethoxy-6-ethyl-2-oxo-6,7-dihydrobenzo[a]quinolizine-3-carboxylic acid]
HBV DNA; [1]
  IC50: 2 nM
HBsAg; [2]
  IC50: 330 nM

## CCOc1cc2c(cc1OCC)-c1cc(=O)c(C(=O)O)cn1C(CC)C2 (stereo not shown) [Example 5, 9,10-diethoxy-6-ethyl-2-oxo-6,7-dihydrobenzo[a]quinolizine-3-carboxylic acid]
HBV DNA; [1]
  IC50: 9 nM
HBsAg; [2]
  IC50: 18 nM

## CCC1Cc2cc(OCC3CC3)c(OC)cc2-c2cc(=O)c(C(=O)O)cn21 (stereo not shown) [Example 30, 9-(cyclopropylmethoxy)-6-ethyl-10-methoxy-2-oxo-6,7-dihydrobenzo[a]quinolizine-3-carboxylic acid]
HBV DNA; [1]
  IC50: 2 nM
HBsAg; [2]
  IC50: 24 nM

## CCC1Cc2cc(OCC(C)C)c(OC)cc2-c2cc(=O)c(C(=O)O)cn21 (stereo not shown) [Example 33, 6-ethyl-9-isobutoxy-10-methoxy-2-oxo-6,7-dihydrobenzo[a]quinolizine-3-carboxylic acid]
HBV DNA; [1]
  IC50: 3 nM
HBsAg; [2]
  IC50: 8 nM

## CCOc1cc2c(cc1OCC)-c1cc(=O)c(C(=O)O)cn1CC2 [Example 76, 9,10-diethoxy-2-oxo-6,7-dihydrobenzo[a]quinolizine-3-carboxylic acid]
HBV DNA; [1]
  IC50: 130 nM
HBsAg; [3]
  IC50: 350 nM

## CCCOc1cc2c(cc1OC)-c1cc(=O)c(C(=O)O)cn1C(CC)C2 (stereo not shown) [Example 78, 6-ethyl-10-methoxy-2-oxo-9-propoxy-6,7-dihydrobenzo[a]quinolizine-3-carboxylic acid]
HBV DNA
  IC50: 4 nM

## COCCCOc1cc2c(cc1Cl)-c1cc(=O)c(C(=O)O)cn1C(C(C)(C)C)C2 (stereo not shown) [Example 202, 6-tert-butyl-10-chloro-9-(3-methoxypropoxy)-2-oxo-6,7-dihydrobenzo[a]quinolizine-3-carboxylic acid]
HBsAg; [2]
  IC50: 2 nM

## COCCCOc1cc2c(cc1Cl)-c1cc(=O)c(C(=O)O)cn1C(C1(C)CC1)C2 (stereo not shown) [Example 205, 10-chloro-9-(3-methoxypropoxy)-6-(1-methylcyclopropyl)-2-oxo-6,7-dihydrobenzo[a]quinolizine-3-carboxylic acid]
HBsAg; [2]
  IC50: 1 nM

## COc1cc2c(cc1OC)-c1cc(=O)c(C(=O)O)cn1C(Cc1ccccc1)C2 (stereo not shown) [Example 211, 6-benzyl-9,10-dimethoxy-2-oxo-6,7-dihydrobenzo[a]quinolizine-3-carboxylic acid]
HBsAg; [3]
  IC50: 8250 nM

## COCCCOc1cc2c(c(F)c1F)-c1cc(=O)c(C(=O)O)cn1C(C(C)C)C2 (stereo not shown) [Example 213, 10,11-difluoro-6-isopropyl-9-(3-methoxypropoxy)-2-oxo-6,7-dihydrobenzo[a]quinolizine-3-carboxylic acid]
HBsAg; [2]
  IC50: 24 nM

## COc1cc2c(cc1OCCCn1cccn1)CC(C(C)(C)C)n1cc(C(=O)O)c(=O)cc1-2 (stereo not shown) [Example 216, 6-tert-butyl-10-methoxy-2-oxo-9-(3-pyrazol-1-ylpropoxy)-6,7-dihydrobenzo[a]quinolizine-3-carboxylic acid]
HBsAg; [3]
  IC50: 6 nM

## COc1cc2c(cc1OCCCn1cncn1)CC(C(C)(C)C)n1cc(C(=O)O)c(=O)cc1-2 (stereo not shown) [Example 217, 6-tert-butyl-10-methoxy-2-oxo-9-[3-(1,2,4-triazol-1-yl)propoxy]-6,7-dihydrobenzo[a]quinolizine-3-carboxylic acid]
HBsAg; [3]
  IC50: 34 nM

## COc1cc2c(cc1OCCCC(=O)O)CC(C(C)(C)C)n1cc(C(=O)O)c(=O)cc1-2 (stereo not shown) [Example 218, 6-tert-butyl-9-(3-carboxypropoxy)-10-methoxy-2-oxo-6,7-dihydrobenzo[a]quinolizine-3-carboxylic acid]
HBsAg; [3]
  IC50: 145 nM

— patent publication US9458153B2, “Dihydroquinolizinones for the treatment and prophylaxis of hepatitis B virus infection” (Hoffmann-La Roche Inc., priority 2014, dated 2016)
